Reference: patent US5726319A, “Biphenyl substituted dipeptide analogs promote release of growth hormone” (Merck & Co., Inc., priority 1995, dated 1998)
Where a name gives a salt, the structure may show the parent alone.

tested on: rat pituitary cells; experiment: growth hormone secretion in rat pituitary cell cultures (GH release, RIA); assay type: cell-based; settings: 0.25 h; GH release from cultured rat anterior pituitary cells, 15 min incubation at 37° C., rat GH measured by double antibody RIA; read-out: ED50 (the source's name)
Protocol: The bioassay employed for the determination of growth hormone secretion in rat pituitary cell cultures has been previously described--Cheng, K.; Chan, W. W.-S; Barreto, A.; Convey, E. M.; Smith, R. G. Endocrinology 124: 2791-2798 (1989)--and is summarized here: The Wistar male rats (150-200 grams) were obtained from Charles River Laboratories (Wilmington, Mass). Rats were maintained at a constant temperature (25° C.) on a 14-hr light, 10-hr dark cycle. Rat chow and water were available ad libitum. The animals were sacrificed by decapitation and anterior lobes of the pituitary quickly removed. Rat pituitary cells were isolated from pituitaries by enzymatic digestion with 0.2% collagenase and 0.2% hyaluronidase in Hank's Balanced Salt Solution. For culture, the cells were suspended in culture medium and adjusted to 1.5×10^5 cells/ml, and 1.0 ml of this suspension was placed in each well of a 24-well tray (Costar, Cambridge, Mass.). Cells were maintained in a humidified 5% CO2 -95% air atmosphere at 37° C. for 3 to 4 days. The culture medium consisted of DMEM containing 0.37% NaHCO3, 10% horse serum, 2.5% fetal bovine serum, 1% non-essential amino acids, 1% glutamine, 1% nystatin, and 0.1% gentamycin. On the day of an experiment, cells were washed twice 11/2 hrs prior to and once more immediately before the start of the experiment with the above culture medium containing 25 mM HEPES, pH 7.4. GH release was initiated by adding 1 ml of fresh medium containing test agents to each well in quadruplicate. Incubation was carded out at 37° C. for 15 min. After incubation, medium was removed and centrifuged at 2,000×g for 15 min to remove any cellular material. The supernatant fluid was removed and assayed for GH content. Rat GH in culture medium was measured by a double antibody RIA procedure using materials obtained from Dr. A. F. Parlow (Harbor-UCLA medical Center, Torrance, Calif.) and expressed in terms of the standard rat GH RP-2. ED50 values for test compounds were computed by fitting a four-parameter logistic function to the dose-response curve. Least squares estimates of the four-parameter logistic function coefficients and their variances were derived using the iterative algorithm described by Bates and Watts.

| Compound | EC50 |
| --- | --- |
| CC(C)(N)CC(=O)N[C@H](Cc1c[nH]c2ccccc12)C(=O)NCc1ccc(-c2ccccc2-c2nnn[nH]2)cc1 [Example 3, (R)-α-[(3-Amino-3-methyl-1-oxobutyl)amino]-N-[[2'-(1H-tetrazol-5-yl)[1,1'-biphenyl]-4-yl]methyl]-1H-indole-3-propanamide, trifluoroacetate] | < 500 nM |
| CC(C)(N)CC(=O)NCC(=O)NCc1ccc(-c2ccccc2-c2nnn[nH]2)cc1 [Example 5, 2-[(3-Amino-3-methyl-1-oxobutyl)amino]-N-[[2'-(1H-tetrazol-5-yl)[1,1'-biphenyl]-4-yl]methyl]acetamide, trifluoroacetate] | > 500 nM |

same assay, conditions: GH release from cultured rat anterior pituitary cells, 15 min incubation at 37° C., rat GH measured by double antibody RIA; read-out: ED50 (the source's name)

| Compound | EC50 |
| --- | --- |
| CN(Cc1ccc(-c2ccccc2-c2nnn[nH]2)cc1)C(=O)[C@@H](CCc1ccccc1)NC(=O)CC(C)(C)N.O=C(O)C(F)(F)F [Example 8a, (R)-α-[(3-Amino-3-methyl-1-oxybutyl)amino]-N-methyl-N-[[2'-(1H-tetrazol-5-yl)-[1,1'-biphenyl]-4-yl]methyl]benzenebutanamide, trifluoroacetate] | > 500 nM |
| CNC(=O)Nc1ccccc1-c1ccc(CNC(=O)[C@@H](COCc2ccccc2)NC(=O)CC(C)(C)N)cc1.O=C(O)C(F)(F)F [Example 24] | > 500 nM |
| (R)-α-[(2-Amino-2-methyl)-1-oxopropyl]amino-N -methyl-N -[2'-(1H -tetrazol-5-yl)[1,1'-biphenyl]-4-yl]butanamide, trifluoroacetate [Example 34] | < 500 nM |
| CNC(=O)NCc1ccccc1-c1ccc(CN(C)C(=O)[C@@H](CCc2ccccc2)NC(=O)C(C)(C)N)cc1.O=C(O)C(F)(F)F [Example 9] | < 500 nM |
| CCCN(Cc1ccc(-c2ccccc2-c2nnn[nH]2)cc1)C(=O)[C@@H](CCc1ccccc1)NC(=O)C(C)(C)N.O=C(O)C(F)(F)F [Example 22, (R)-α-[(2-Amino-2-methyl-1-oxypropyl)amino]-N-[[2'-(1H-tetrazol-5-yl)-[1,1'-biphenyl]-4-yl]methyl]-N-(propyl)benzenebutanamide, trifluoroacetate] | < 500 nM |
| CNC(=O)NCc1ccccc1-c1ccc(CN(C)C(=O)[C@@H](CCc2ccccc2)NC(=O)CCC(C)(C)N)cc1.O=C(O)C(F)(F)F [Example 12] | < 500 nM |
| CCN(Cc1ccc(-c2ccccc2-c2nnn[nH]2)cc1)C(=O)[C@@H](CCc1ccccc1)NC(=O)C(C)(C)N.O=C(O)C(F)(F)F [Example 18, (R)-α-[(2-Amino-2-methyl-1-oxypropyl)amino]-N-ethyl-N-[[2'-(1H-tetrazol-5-yl)-[1,1'-biphenyl]-4-yl]methyl]benzenebutanamide, trifluoroacetate] | > 500 nM |
| CC(C)(N)C(=O)N[C@H](COCc1ccccc1)C(=O)NCc1ccc(-c2ccccc2NC(=O)NCCO)cc1.O=C(O)C(F)(F)F [Example 25, (R)-α-[(2-Amino-2-methyl-1-oxopropyl)amino]-N-[[(2'-[(2-hydroxyethylamino)carbonyl]amino][1,1'-biphenyl]-4-yl]-methyl]-3-[(phenylmethyl)oxy]propanamide, trifluoracetate] | > 500 nM |
| CN(Cc1ccc(-c2ccccc2-c2nnn[nH]2)cc1)C(=O)[C@@H](CCc1ccccc1)NC(=O)CCC(C)(C)N.O=C(O)C(F)(F)F [Example 11, (R)-α-[(4-Amino-4-methyl-1-oxopentyl)amino]-N-methyl-N-[[2'-(1H-tetrazol-5-yl)[1,1'-biphenyl]-4-yl]methyl]benzenebutan amide, trifluoroacetate] | < 500 nM |
